# Where two headings read alike, the source gives them in different places.
# What was measured:
# [1] = system: HCT116-WT cells; test: Inhibitory activity against cell proliferation (CellTiter Glo, 6 days), HCT116-WT; type: cell-based; settings: 144 h, HCT116-WT cells, 6 days, CellTiter Glo; read-out: HCT116-WT IC50
# Procedure, shortened: (§1)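 Viability IC50s come from CellTiter Glo luminescence after 6 days' exposure to compound (8 concentrations, 4-fold steps, top 10000 nM), relative to DMSO wells. Cells were MTAP-KO or WT HCT116, seeded at 250 per well in McCoy's 5A with 10% FBS and incubated overnight before dosing.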
# [2] = molecular target: PRMT5-MTA (Homo sapiens, UniProt O14744); test: Enzymatic inhibitory activity against PRMT5-MTA (AlphaScreen); type: biochemical
# PRMT5-MTA, sequence (O14744 whole entry): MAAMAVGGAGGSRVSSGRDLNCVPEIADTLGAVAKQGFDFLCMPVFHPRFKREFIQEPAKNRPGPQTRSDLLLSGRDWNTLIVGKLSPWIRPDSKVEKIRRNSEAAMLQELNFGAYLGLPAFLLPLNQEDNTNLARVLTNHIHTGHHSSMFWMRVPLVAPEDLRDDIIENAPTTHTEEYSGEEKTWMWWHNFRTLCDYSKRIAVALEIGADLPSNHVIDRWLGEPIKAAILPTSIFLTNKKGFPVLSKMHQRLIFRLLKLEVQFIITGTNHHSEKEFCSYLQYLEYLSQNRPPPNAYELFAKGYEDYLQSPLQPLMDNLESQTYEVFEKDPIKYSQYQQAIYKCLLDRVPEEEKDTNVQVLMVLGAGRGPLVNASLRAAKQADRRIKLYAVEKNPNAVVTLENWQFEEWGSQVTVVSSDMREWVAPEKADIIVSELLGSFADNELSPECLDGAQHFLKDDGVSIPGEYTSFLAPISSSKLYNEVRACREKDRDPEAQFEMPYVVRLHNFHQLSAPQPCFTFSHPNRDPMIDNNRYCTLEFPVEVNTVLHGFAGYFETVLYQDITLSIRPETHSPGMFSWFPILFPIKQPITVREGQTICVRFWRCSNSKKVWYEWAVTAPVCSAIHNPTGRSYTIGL
# PRMT5-MTA, sequence (Q9BQA1 whole entry partner): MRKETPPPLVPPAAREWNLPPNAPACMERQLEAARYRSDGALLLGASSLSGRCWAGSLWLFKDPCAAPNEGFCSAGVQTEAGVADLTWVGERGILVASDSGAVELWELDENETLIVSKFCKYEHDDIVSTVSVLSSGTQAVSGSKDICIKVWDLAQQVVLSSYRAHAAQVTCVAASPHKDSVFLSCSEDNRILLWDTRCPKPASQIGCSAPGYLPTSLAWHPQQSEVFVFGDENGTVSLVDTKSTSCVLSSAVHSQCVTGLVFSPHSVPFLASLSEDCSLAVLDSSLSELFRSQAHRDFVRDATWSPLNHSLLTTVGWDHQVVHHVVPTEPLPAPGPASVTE
# Procedure, shortened: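 PRMT5/[…] (1 nM) was preincubated for 30 min at room temperature with 1 µM […] and 2.5 µM SAM, then exposed to compound (10-point, 3-fold from 1000 nM) for 15 min at 23 °C. Histone H4 substrate (5 nM) was added and reacted for 45 min at 23 °C. Symmetric dimethyl-R3 H4 was detected by AlphaScreen and IC50 calculated.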
# [3] = system: HCT116 MTAP KO cells; test: Inhibitory activity against cell proliferation (CellTiter Glo, 6 days), HCT116 MTAP KO; type: cell-based; settings: for IC50: Homo sapiens, HCT-116, 144 h, HCT116 MTAP KO cells, 6 days, CellTiter Glo, read-out: HCT116 MTAP KO IC50; for Selectivity HCT 116-WT/ HCT116 MTAP KO: ratio of IC50 HCT116-WT / HCT116 MTAP KO
# Procedure, shortened: as §1
SMILES,IC50 [1] [µM],IC50 ([2]; read-out: IC50) [µM],IC50 [3] [µM],Selectivity HCT 116-WT/ HCT116 MTAP KO [3],IC50 [2] [µM]
"COc1cc(-c2ccc(CN(C(=O)c3ccc4nc(N)c(C)cc4c3)N(C)c3ncccn3)nc2)cnc1F [Example 199, 2-amino-N-((6'-fluoro-5'-methoxy-[3,3'-bipyridine]-6-yl)methyl)-N',3-dimethyl-N'-(pyrimidin-2-yl)quinoline-6-carbohydrazide]",1.96,0.0025,0.106,18.53,–
"Cc1cc2cc(C(=O)N(Cc3ccc(-c4cnn(CC(F)(F)F)c4)cn3)N(C)c3ncccn3)ccc2nc1N [Example 181, 2-amino-N',3-dimethyl-N'-(pyrimidin-2-yl)-N-((5-(1-(2,2,2-trifluoroethyl)-1H-pyrazol-4-yl)pyridin-2-yl)methyl)quinoline-6-carbohydrazide]",0.865,0.00069,0.036,24.03,–
"CC1CN(C(=O)c2cc3c(cc2Cl)nc(N)c2cnn(C)c23)N(c2ncccc2F)C1 (stereo not drawn) [Example 398, (4-amino-7-chloro-1-methyl-1H-pyrazolo [4,3-c]quinolin-8-yl)(2-(3-fluoropyridin-2-yl)-4-methylpyrazolidin-1-yl)methanone]",1.62,0.0039,0.039,41.49,–
"COC(C)(C)C#Cc1cnc(N2CC(C)CN2C(=O)c2cc3c(cc2C)nc(N)c2cnn(C)c23)c(F)c1 (stereo not drawn) [Example 491, (4-amino-1,7-dimethyl-1H-pyrazolo[4,3-c]quinolin-8-yl)(2-(3-fluoro-5-(3-methoxy-3-methylbut-1-yn-1-yl)pyridin-2-yl)-4-methylpyrazolidin-1-yl)methanone]",2.23,0.0086,0.189,11.81,–
"Cn1ncc2c(N)nc3cc(F)c(C(=O)N4CCCN4c4ccc(C(F)(F)F)cn4)cc3c21 [Example 340, (4-amino-7-fluoro-1-methyl-1H-pyrazolo [4,3-c]quinolin-8-yl)(2-(5-(trifluoromethyl)pyridin-2-yl)pyrazolidin-1-yl)methanone]",> 10,0.0042,0.295,–,–
"Cc1cc2cc(C(=O)N(Cc3ccc(-c4ccccn4)cn3)N(C)c3ncccn3)ccc2nc1N [Example 141, N-([2,3'-bipyridine]-6'-ylmethyl)-2-amino -N',3-dimethyl-N'-(pyrimidin-2-yl)quino line-6-carbohydrazide]",2.03,0.0023,0.076,26.76,–
"[2H]C([2H])([2H])c1cc2cc(C(=O)N(Cc3ccc(-c4scnc4C)cn3)N(c3ncccn3)C3CC3)ccc2nc1N [Example 316, 2-amino-N'-cyclopropyl-3-(methyl-D3)-N-((5-(4-methylthiazol-5-yl)pyridin-2-yl)methyl)-N'-(pyrimidin-2-yl)quinoline-6-c arbohydrazide]",0.215,0.0068,0.011,19.55,–
COCC1CN(C(=O)c2cc3c(cc2C)nc(N)c2cnn(C)c23)N(c2ncccc2F)C1 (stereo not drawn) [Example 357],0.852,–,0.016,53.25,0.0034
"Cc1cc2cc(C(=O)N(Cc3ccc(-c4cnc(C(F)(F)F)s4)cn3)N(C)c3ncccn3)ccc2nc1N [Example 244, 2-amino-N',3-dimethyl-N'-(pyrimidin-2-yl)-N-((5-(2-(trifluoromethyl)thiazol-5-yl)pyridin-2-yl)methyl)quinoline-6-carbohydrazide]",0.581,0.0042,0.041,14.17,–
"Cc1cc2cc(C(=O)N(Cc3ccc(C(F)(F)F)cn3)N(c3ncccn3)C3CCC3)ccc2nc1N [Example 83, 2-amino-N'-cyclobutyl-3-methyl-N'-(pyrimidin-2-yl)-N-((5-(trifluoromethyl)pyridin-2-yl)methyl)quinoline-6-carbohydrazide]",1.93,0.0045,0.134,14.39,–

# Source: EP4745134A1 (Jiangsu Yahong Meditech Co., Ltd., priority 2023, dated 2025)
